Experimental data: US8642074B2, “Thermosensitive liposomes containing therapeutic agents” (Celsion Corporation, priority 2007, dated 2014)
Where “and” joins values, the source holds several entries; their conditions need not be identical. Equal entries are not always repeated.

Key:
[1] = In vivo drug distribution in heated and non-heated leg muscle, liposome vs free docetaxel (Example 2); set-up: species or system BALB/c mice
Experimental: Six female BALB/c mice (20±2 g) were randomly separated into 3 groups. The mice were anesthetized and put on a Styrofoam board with a hole in it. One leg of the mouse was pulled through the hole to other side of the board. The board was floated in a water bath to heat the leg at 43.5±0.5° C. for 15 min. The mice then received a tail vein injection of either liposomes at a dose of 10 mg/kg or the same dose of Taxotere (control: prepared according to the manufacturers specifications) The one leg from each mouse was then heated for 30 min. after injection and then sacrificed. Muscles from the heated and non-heated legs were excised. Drug was extracted from a fixed weight of muscle tissue using the extraction method described above. The extracted drug was analyzed by HPLC.

[2] = test system: Lewis lung carcinoma cells; test: In vivo efficacy in mice bearing Lewis lung tumors with local heating; set-up: species or system Kunming mice; settings: day 18, 75 mg/m^2 on days 8, 12, 16
Experimental: Twelve female Kunming mice, between 7-9 weeks old and weighing 20±2 g were used. Lewis lung carcinoma cells (3×10^6 cells in 0.1 ml of PBS.) were implanted subcutaneously into the right lower leg of each mouse. Tumors were allowed to grow to 4-6 mm in diameter before starting treatment.
The 12 mice were stratified by tumor volume and randomized to 3 treatment groups: saline, free docetaxel and the thermosensitive liposomes of the invention.
Docetaxel-containing thermosensitive liposomes of the invention were prepared as described above and stored at 2-8° C. until use. Treated animals were injected with 75 mg/m^2 docetaxel either in a thermosensitive liposome of the invention or as non-liposomal Taxotere prepared according to the manufacturer's specifications.
The treatment was started on day 8 after the tumor implantation and was repeated on day 12 and day 16. Mice in all treatment groups were anesthetized with an IP injection of pentobarbital (80 mg/kg); treatment was administered in a volume of 0.2 ml via tail vein injection. This dose of anesthesia provided adequate immobilization for the 1-h treatment period.
Except for the saline group, all treatment groups were given an equivalent dose of 75 mg/m^2 of docetaxel. Immediately after injection, the mice were positioned in specially designed holders that allowed the isolated leg tumor to be placed in a water bath for 30 minutes. The water bath temperature was set at 43° C. This water bath temperature has been calibrated previously to give tumor temperatures of 42° C. All the mice were sacrificed at day 18. The tumors were surgically excised and the tumor weights were recorded. The tumor growth inhibition was calculated as follows: Tumor Inhibition Ratio=(Vs−Vx)/Vs
Where: Vs is tumor volume of saline group, Vx is the tumor volume of treatment group.

drug concentration in heated compared with non heated tissue ([1]; Example 2, 10 mg/kg tail vein): the same | Adrug/Aref % (heated leg) ([1]; muscle, leg heated at 43.5±0.5° C., 10 mg/kg tail vein, HPLC, Groups 1-3, 10 mg/kg): 5.46% and 6.53% and 5.48% | Adrug/Aref % (non-heated leg) ([1]; muscle, non-heated leg, 10 mg/kg tail vein, HPLC, Groups 1-3, 10 mg/kg): 5.48% and 6.29% and 5.32%
SMILES: CC(=O)O[C@@]12CO[C@@H]1C[C@H](O)[C@@]1(C)C(=O)[C@H](O)C3=C(C)[C@@H](OC(=O)[C@H](O)[C@@H](NC(=O)OC(C)(C)C)c4ccccc4)C[C@@](O)([C@@H](OC(=O)c4ccccc4)[C@H]21)C3(C)C [Docetaxel, docetaxel]
Tumor Weight Average ([2]; group average, tumor heated 30 min, in g (unit assumed)): 1.002 | Tumor Weight ([2]; individual mice, tumor heated 30 min at 42° C., listed as Docetaxel Injection, in g (unit assumed)): 0.500 and 0.118 and 1.380 and 2.010 | Inhibition % ([2]; vs saline group, tumor heated 30 min): 77.91%
